Experimental data published in patent US4014909A, “Esters of 21-thiol steroids” (priority 1974, dated 1977).

Columns and labels:
granuloma = assay: Anti-proliferative (anti-granulomatous) activity, cotton pellet granuloma; type: in vivo, rat (Wistar, male); settings: rat, cotton pellet impregnated with product, 6 days
Excerpt: The experimental local anti-inflammatory activity of the compounds presented was estimated in rats by their anti-proliferative (anti-granulomatous) action, and for certain of these, by their anti-arthritic activity and their antiexudative activity.
The anti-proliferative (anti-granulomatous) activity has been brought into evidence by means of a test, the principle of which is as follows.
The introduction of a foreign body into an organism produces a set of inflammatory reactions which results, in the chromic stage, in the formation of a defence granuloma around the foreign body. The proliferation of this granuloma is eliminated or attenuated by anti-inflammatory agents.
The technique employed is very similar to that described by Winter and Porter (J. Am. Pharm. Ass. 46/9. 515) 1957 with rats.
Homogeneous groups of 6 male adult rats of the Wistar Strain were used, distributed at random and having weights comprised between 180 and 200 grams.
The implants or pellets were prepared from rolls of dental cotton; the weight of the pellets was between 35 and 40 mg.
The products to be tested were dissolved in dimethylsulphoxide (DMSO) and the solutions obtained, deposited on the pellets at a volume of 0.2 ml per pellet. The DMSO was then evaporated under high vacuum at ambient temperature, the complete elimination of the solvent being checked by weighing the pellets. "Reference" pellets, soaked with the solvent alone, were treated in the same manner.
Immediately before their introduction, the pellets were soaked with an antibiotic solution (0.1 ml. of a solution of penicillin G and streptomycin containing 200,000 of penicillin G and 0.1 gram of streptomycin sulphate per cc.).
Each animal received two pellets in the sub-cutaneous dorsal tissue on each side of the spinal column, at the costo-lumbar angle, under light anaesthesia with ether. The day of the operation and for three days after, the animals received by sub-cutaneous injection, 0.1 ml. of the antibiotic solution in the caudal region.
Six days after the introduction, the animals were killed by inhalation of chloroform and the granulomae were extracted and weighed, (fresh weight), and then the initial weights of the cotton pellets were subtracted from the total weight.
Certain non-sulphured steroids causing a large increase in protein catabolism which can influence the formation of the granuloma independently of their anti-inflammatory action, the weights of the granulomae were expressed as a percentage of the body weight (technique proposed by G. Dipasquale and A. Meli: J. Pharm. Pharmacol. (1965), 17,367-382) and the anti-proliferative effect of the various compounds as a percentage inhibition with respect to the reference granulomae. The DE50 were calculated by transferring the results on to semi-logarithmic paper.

granuloma / thymus = assay: Ratio of the local anti-inflammatory activity to the thymolytic activity; type: in vivo, rat (Wistar); settings: for ED50 anti-proliferative activity / ED50 thymolytic activity (sub-cutaneous route): thymolytic activity determined by sub-cutaneous route; for ED50 anti-proliferative activity / ED50 thymolytic activity (oral route): thymolytic activity determined by the oral route
Procedure: The DE50 were calculated by transferring the results on to semi-logarithmic paper.
For each animal, the weight of the thymus has been brought to 100 grams of body weight. The thymolytic activity of the products under study was then expressed as a percentage of regression of the thymus with respect to the animals of the reference group and the ED50 of each product tested was estimated by transferring the percentage inhibition obtained for each dose on semi-logarithmic paper.
The ratio is indicated in Tables VII, VIII and IX which follow: […]

[1] = system: exudate in carrageenan air pouch; assay: Anti-exudative action, carrageenan air pouch; type: in vivo, rat (Wistar, male); settings: injected into the air pouch 96 h after carrageenan; exudate measured 96 h later
Procedure: The anti-exudative activity was brought into evidence by means of a test, the principle of which is as follows.
This test consists of creating, under the dorsal skin of the rat an air pouch in which an irritant product is injected. An inflammatory reaction appears rapidly and is shown by the accumulation of liquid in the pouch of air.
The introduction of an anti-inflammatory product into the air pouch reduced, more or less completely, the accumulation of exudate.
This study was carried out with male rats of the Wistar strain, the initial weight of which was between 160 and 180 grams, following the technique described by M. Fukuhara and S. Tsurufuji (Bio-Chem. Pharmac. 18, 475-484, 1969). Each lot comprised 10 animals distributed at random.
Twenty-four hours before the beginning of the test, each animal received a sub-cutaneous injection of 6 ml. of air in the dorsal region, previously shaved. […]
Ninety-six hours after this last injection, the animals were killed and the exudate contained in the pouch was collected through a small incision made with a scalpel, and its volume was measured in a test tube.
The difference in volume of the exudate between the animals treated and the reference lot was expressed as a percentage inhibition.

hepatic tissue = assay: Action on the glucidic metabolism: hepatic glycogen after 96 hours treatment; type: in vivo, rat (Wistar, male); settings: 18 h water diet
Excerpt: The action on the glucidic metabolism was investigated by means of a test, the principle of which is as follows:
Gluco-corticoid reduce the peripheral needs of the organism in glucose, they also increase the synthesis by the liver of glycogen (neo-glycogenesis). Their action on the glucidic metabolism is thus indicated:
(1) By an increase of glycemia;
(2) by a glycogenic overload on the liver and especially by the persistence of the hepatic shock of glycogen in the food-deprived animal, and treated with a glyco-corticoid by comparison with the non-treated animal.
For this study, Wistar male rats were used; the initial weight of which was between 150 and 160 grams, distributed at random in groups of 10.
The products studied were administered by the oral route in suspension in 5 % gum arabic, under a volume of 0.5 ml. per 100 grams, the animals of the reference group receiving the same volume of vehicles under the same condition.
The treatments were carried out daily for four days, a fifth administration being given seven hours before killing the animals, which took place 96 hours after the first administration.
Immediately after killing the animals, a sample of the hepatic tissue was taken from the central lobe and weighed. Immediately afterwards, it was subjected to digestion in 30 % potassium hydroxide in a boiling water-bath for 20 minutes. The glycogen contained in the digestate was then dosed, following the technique described by R. O. Stafford, L. E. Barnes and Coll. (Proc. Soc. Exp. Med. 39/3, 371-374, 1955).
The content of glycogen in the liver samples has been expressed in grams of glycogen per 100 grams of hepatic tissue.
Table XIII which follows indicates the content of glycogen in the liver with the reference animals and the treated animals for 96 hours after a water diet of 18 hours (see procedure (e)).

SMILES	ED50 anti-proliferative activity (granuloma) [mg/pellet]	ED50 anti-proliferative activity / ED50 thymolytic activity (sub-cutaneous route) (granuloma / thymus)	ED50 anti-proliferative activity / ED50 thymolytic activity (oral route) (granuloma / thymus)	ED50 anti-exudatory activity [1]	Glycogen in hepatic tissue (hepatic tissue; 2 mg/kg oral) [g/100 g]	Glycogen in hepatic tissue (hepatic tissue; 5 mg/kg oral) [g/100 g]	Glycogen in hepatic tissue (hepatic tissue; 10 mg/kg oral) [g/100 g]	Glycogen in hepatic tissue (hepatic tissue; 20 mg/kg oral) [g/100 g]	Glycogen in hepatic tissue (hepatic tissue; 50 mg/kg oral) [g/100 g]	Glycogen in hepatic tissue (hepatic tissue; 25 mg/kg oral) [g/100 g]	Glycogen in hepatic tissue (hepatic tissue; 100 mg/kg oral) [g/100 g]
CC(=O)OCC(=O)[C@@]1(O)CC[C@H]2[C@@H]3CCC4=CC(=O)CC[C@]4(C)[C@H]3[C@@H](O)C[C@@]21C [Hydrocortisone (acetate), Hydrocortisone acetate, reference compound]	1.05	1.2	0.25	1,5 mg	0.19	0.45	0.46	1.26	2.49		
CC(C)(C)C(=O)SCC(=O)[C@@]1(O)CC[C@H]2[C@@H]3CCC4=CC(=O)CC[C@]4(C)[C@H]3[C@@H](O)C[C@@]21C [JO 1016, Dihydroxy-11β, 17α thio-21 dioxo-3,20 pregnene-4-21 pivalate]	0.35	0.0008	< 0.003	1.5 mg					0.39	0.25	0.42
